Laboratory results as given in patent US20250188075A1, “SUBSTITUTED HETEROCYCLIC CSNK1 INHIBITORS” (The Broad Institute, Inc., priority 2022, published 2025).

Legend:
[1] = Solubility assay (thermodynamic solubility); assay type: physicochemical; details: aqueous buffer, 24 h
Experimental: Solubility of solid compound in aqueous buffer was determined by an equilibrium shake flask method. A saturated solution of drug in solvent (˜2 mg/ml solvent) was prepared and the solution was mixed for 24 h to ensure that equilibrium has been reached. The solution was centrifuged to remove the insoluble fraction and the concentration of the compound in solution was determined by HPLC-UV using a standard calibration curve (Kerns, E. H. et al., Solubility Methods in: Drug-like Properties: Concepts, Structure Design and Methods, p 276-286. Burlington, MA: Academic Press 2008).

[2] = biological target: human Ether-a-go-go-Related Gene (hERG) potassium channel (Homo sapiens (Human), UniProt Q12809); test: hERG inhibition assay, automated voltage clamp; assay type: cell-based; details: HEK293 cells stably expressing hERG alpha subunit
Experimental: Following harvest, cells were transferred to the cell reservoir of a 384 channel automated patch clamp device and stored there at 20° C. until usage.
Upon start of the automated voltage clamp procedure, hERG cells were transferred to a 384 well patch clamp chip (pipette resistance of ˜[…] (2) prefilled with external solution (containing in mM: 143 NaCl, 4 KCl, 2 CaCl2), 1 MgCl2, 5 glucose, 10 HEPES; pH 7.4 (NaOH)). Underpressure was applied underneath the glass bottom of the patch clamp chip to position the hERG cells on the recording sites in the glass bottom of the chip. Following successful cell catch, underpressure was stopped and a seal enhancing solution (containing in mM: 78 NaCl, 60 NMDG, 4 KCl, 10 CaCl2), 1 MgCl2, 5 glucose, 10 HEPES; pH 7.4 (HCl)) was added to the hERG cells to facilitate the formation of stable seals between the membranes of the hERG cells and the glass next to the recording sites. Then, hERG cells were washed several times with wash solution (containing in mM: 87 NaCl, 60 NMDG, 4 KCl, 2 CaCl2), 1 MgCl2, 5 glucose, 10 HEPES; pH 7.4 (HCl)) to remove excess seal enhancing solution. In the meantime, the membrane parts of the hERG cells covering the recording sites were exposed to internal solution (containing in mM: 10 NaCl, 123 KF, 10 EGTA, 10 HEPES; pH 7.2 (KOH)) supplemented with 5-20 μM Escin, and the perforated patch configuration was established. Next, the holding potential was stepwise adjusted to −80 mV, capacitance was compensated, and a series of defined voltage commands was initiated to trigger the hERG current response from the hERG cells (−80 mV for 200 ms, +20 mV for 1000 ms, −40 mV for 500 ms; repeated at a frequency of 0.1 Hz). To determine whether the test item inhibits hERG, different solutions were sequentially applied to the hERG cells: First, a negative control (i.e. wash solution supplemented with 0.3% DMSO and 0.01% HSA) was applied for at least 3 min to investigate the basic electrophysiological properties of the hERG cells as well as define their standard current response. Next, a solution containing the test item at a final concentration of (0.1, 1, or 10) μM was applied for 10 min to measure eventual inhibitory effects of the test item on the hERG current (—the test item solution was produced from a 10 mM DMSO stock by using an automated pipetting device and sequential dilution). Finally, a positive control (i.e. wash solution supplemented with 0.3% DMSO, 0.01% HSA, and 10 μM quinidine) was added to the cells for ˜3 min to block the hERG current and, thereby, define the maximum inhibition. For data analysis, experimental results were processed using the automated patch clamp device-specific software as well as a custom-made software, and TIBCO Spotfire. For each successful recording, hERG tail current amplitudes were averaged from three consecutive current responses at the end of the negative control phase, test item phase, and positive control phase, respectively. Resulting mean hERG tail current amplitudes were normalized to the mean hERG tail current amplitude at the end of the negative control phase with nominal 0% inhibition as well as the hERG tail current amplitude at the end of the positive control phase with nominal 100% inhibition. Then, the effect of the test item was calculated as a percentage inhibition value at the test item concentration applied. Finally, percentage inhibition values from all successful recordings at a particular test item concentration were averaged and combined to construct a standard sigmoidal dose response curve, determine the half maximal inhibitory concentration (IC50) of the test item as well as extrapolate its IC20.

Sequence of human Ether-a-go-go-Related Gene (hERG) potassium channel (Q12809 whole entry): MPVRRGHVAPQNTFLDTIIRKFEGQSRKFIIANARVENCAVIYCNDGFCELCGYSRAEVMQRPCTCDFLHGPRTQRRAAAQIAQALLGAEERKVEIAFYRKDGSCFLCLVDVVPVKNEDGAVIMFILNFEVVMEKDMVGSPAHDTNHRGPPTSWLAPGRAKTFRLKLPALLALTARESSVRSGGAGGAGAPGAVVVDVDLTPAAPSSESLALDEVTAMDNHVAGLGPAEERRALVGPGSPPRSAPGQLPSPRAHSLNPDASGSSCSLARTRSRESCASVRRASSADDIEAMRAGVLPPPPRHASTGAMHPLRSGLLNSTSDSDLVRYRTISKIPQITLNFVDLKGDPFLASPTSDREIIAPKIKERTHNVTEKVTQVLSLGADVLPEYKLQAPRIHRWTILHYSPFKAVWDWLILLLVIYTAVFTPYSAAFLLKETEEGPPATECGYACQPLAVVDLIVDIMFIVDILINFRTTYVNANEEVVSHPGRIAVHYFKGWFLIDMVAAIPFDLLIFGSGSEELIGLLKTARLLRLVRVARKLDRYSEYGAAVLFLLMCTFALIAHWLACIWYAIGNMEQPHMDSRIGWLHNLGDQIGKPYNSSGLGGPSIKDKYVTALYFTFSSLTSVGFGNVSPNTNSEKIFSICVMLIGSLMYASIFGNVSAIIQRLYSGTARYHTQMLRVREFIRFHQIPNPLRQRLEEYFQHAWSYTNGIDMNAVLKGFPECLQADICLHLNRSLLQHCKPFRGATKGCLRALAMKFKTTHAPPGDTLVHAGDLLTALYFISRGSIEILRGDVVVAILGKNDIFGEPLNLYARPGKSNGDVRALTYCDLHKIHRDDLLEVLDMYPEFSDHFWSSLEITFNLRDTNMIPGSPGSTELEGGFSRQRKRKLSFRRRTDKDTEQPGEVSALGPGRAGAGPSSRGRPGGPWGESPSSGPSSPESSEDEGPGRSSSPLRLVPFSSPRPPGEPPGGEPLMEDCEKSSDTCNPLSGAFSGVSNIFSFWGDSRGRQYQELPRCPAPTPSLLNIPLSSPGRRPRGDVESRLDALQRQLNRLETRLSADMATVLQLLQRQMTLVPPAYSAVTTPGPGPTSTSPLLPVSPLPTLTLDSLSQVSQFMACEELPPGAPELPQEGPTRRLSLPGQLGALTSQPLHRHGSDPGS

O=C(Cc1ccc(F)cc1)Nc1cc(-c2[nH]c3ccc(F)nc3c2-c2ccccn2)ccn1 [Example C4, reference compound]
Thermodynamic Solubility [mg/l] (mean) [1]: 2.35 mg/L | IC50 [2]: 1.16 µM
